{
  "source": "patent US20060122279A1",
  "about": "“Hydrophobic polyamine amides as potent lipopolysaccharide sequestrants” (priority 2004, published 2006)",
  "key": {"[1]": {"format": "binding, E. coli 0111:B4", "settings": "E. coli 0111:B4 LPS; Tables 1-3; read-out: ED50 (half-maximal effective displacement of BC probe from LPS)", "method": "Polymyxin B (PMB), a peptide antibiotic known to bind and neutralize LPS^47 serves as the positive control and reference compound for every plate, enabling the quantitative assessment of repeatability and reproducibility (CV and Z′ factors) for the assay. Robotic liquid handling is performed on a Precision 2000 automated microplate pipetting system, programmed using the Precision Power software, Bio-Tek Instruments Inc., VT, USA. Stock solutions of LPS (5 mg/ml; E. coli 0111:B4; procured from Sigma) and BC (500 μM) are prepared in Tris buffer (pH 7.4, 50 mM). 1 ml each of the LPS and BC stocks are mixed and diluted in Tris buffer to a final volume of 100 ml, yielding final concentrations of 50 μg/ml of LPS and 5 μM BC. 40 μl of this BC:LPS mixture is added to each well of the plate using the Precision 2000. Fluorescence measurements are made at 25° C. on a Fluoromax-3 with Micromax Microwell 384-well plate reader, using DataMax software, Jobin Yvon Inc., N.J. The BC excitation wavelength is 580 nm, emission spectra are taken at 620 nm with both emission and excitation monochromator bandpasses set at 5 nm."}, "[2]": {"system": "murine macrophage J774.A1 cells", "assay": "Nitric oxide (NO) inhibition in LPS-stimulated J774.A1 cells (Griess)", "format": "cell-based", "method": "Murine monocytes (J774.A1 cells) produce measurable quantities of NO on exposure to LPS and provide a model for the rapid assessment of compounds to neutralize LPS activity. […] In all experiments, Polymyxin B (PMB), a decapeptide antibiotic, known to bind and neutralize LPS,^29;47;48 is used as a reference compound.\nNitric oxide production is measured as total nitrite in murine macrophage J774.A1 cells using the Griess reagent system.^53;54 Murine macrophage J774.A1 cells are grown in RPMI-1640 cell-culture medium containing L-glutamine and sodium bicarbonate and supplemented with 10% fetal bovine serum, 1% L-glutamine-penicillin-streptomycin solution, and 200 μg/ml L-arginine at 37° C. in a 5% CO2 atmosphere. Cells are plated at ˜2×10^6/ml in a volume of 40 μl/well, in 384 well, flat-bottomed, cell culture treated microtiter plates until confluency and subsequently stimulated with 100 ng/ml lipopolysaccharide (LPS). Concurrent to LPS stimulation, serially diluted concentrations of test compounds are added to the cell medium and left to incubate overnight for 16 h. Polymyxin B is used as reference compound in each plate. Positive—(LPS stimulation only) and negative-controls (J774.A1 medium only) are included in each experiment. Nitrite concentrations are measured adding 30 μl of supernatant to equal volumes of Griess reagents (50 μl/well; 0.1% NED solution in ddH2O and 1% sulfanilamide, 5% phosphoric acid solution in ddH2O) and incubating for 15 minutes at room temperature in the dark. Absorbance at 535 nm is measured using a Molecular Devices Spectramax M2 multifunction plate reader (Sunnyvale, Calif.). Nitrite concentrations are interpolated from standard curves obtained from serially diluted sodium nitrite standards."}, "[3]": {"system": "TNF-α and IL-6 production in whole human blood", "assay": "Multiplexed cytokine assay ex vivo in human blood stimulated with LPS", "format": "cell-based", "settings": "versus polymyxin B", "method": "The activity of a subset of active Lys-spermine compounds is examined for their ability to inhibit TNF-α and IL-6 production in whole human blood, stimulated ex vivo with LPS.\n100 μl aliquots of fresh whole blood, anticoagulated with EDTA, obtained by venipuncture from healthy human volunteers with informed consent and as per guidelines approved by the Human Subjects Experimentation Committee, is exposed to an equal volume of 50 ng/ml of E. coli 0111:B4 LPS, with graded concentrations of test compounds diluted in saline for 4 h in a 96-well microtiter plate. The effect of the compounds on modulating cytokine production examined using a FACSArray multiplexed flow-cytometric bead array (CBA) system (Becton-Dickinson-Pharmingen, San Jose, Calif.). The system uses a sandwich ELISA-on-a-bead principle,^55;56 and is comprised of 6 populations of microbeads that are spectrally unique in terms of their intrinsic fluorescence emission intensities (detected in the FL3 channel of a standard flow cytometer). […] After washing the beads, a mixture of optimally paired second antibodies conjugated to phycoerythrin is added which then forms a fluorescent ternary complex with the immobilized cytokine, the intensity (measured in the FL2 channel) of which is proportional to the cytokine concentration on the bead. […] The data are analyzed in the CBA software suite that is integral to the FACSArray system."}, "NFκB": {"system": "NFκB", "assay": "NFκB inhibition (LPS-induced)", "format": "cell-based", "settings": "in words", "description": "A focused library of alkyl or acyl c-substituted lysine-spermine conjugates is synthesized with even carbon-numbered chains of C14 to C20 lengths. […] Furthermore, the data showhigh activity compounds are those with chain lengths between C16 and C20. […] The exemplary compounds L-Lys-ε-(stearoyl)-N^1-spermine, D-Lys-ε-(stearoyl)-N^1-spermine, L-Lys-ε-(octadecanyl)-N^1-spermine and D-Lys-ε-(octadecanyl)—N1-spermine all show high activity for the prevention of LPS-induced NFκβ cytokine release from stimulated lymphocytes. Furthermore, the exemplary compounds L-Lys-ε-(stearoyl)-N^1-spermine, D-Lys-ε-(stearoyl)-N^1-spermine, L-Lys-ε-(octadecanyl)-N^1-spermine and D-Lys-ε-(octadecanyl)-N^1-spermine all show high activity for the prevention of LPS-induced NO release from stimulated lymphocytes."}},
  "note": "Where two headings read alike, the source gives them in different places.",
  "data": [
    {"smiles": "CCCCCCCCCCCCCCCCCC(=O)NCCCCC(N)C(=O)NCCCNCCCCNCCCN", "note": "[Compound 8, D-Lys-ε-(stearoyl)-N^1-spermine]", "values": [
      {"measurement": "EC50", "setting": "[1]", "value": 8.8, "unit": "µM"},
      {"measurement": "IC50", "setting": "[2]; J774.A1 cells, 100 ng/ml LPS, 16 h, Tables 1-3, read-out: NO IC50", "value": 1.98, "unit": "µM"},
      {"measurement": "IC50", "setting": "[2]; Table 7 focused library, NO inhibition, read-out: NO", "value": 10.3, "unit": "µM"},
      {"measurement": "prevention of LPS-induced NO release from J774.A1 macrophages", "setting": "[2]; in words", "value": "high activity"},
      {"measurement": "inhibitory potency on TNF-α and IL-6 production", "setting": "[3]", "value": "almost as potent as polymyxin B"},
      {"measurement": "prevention of LPS-induced NFκβ cytokine release from stimulated lymphocytes", "setting": "NFκB", "value": "high activity"}
    ]}
  ]
}
